Reference: US10610125B2, “Methods and compositions for cell-proliferation-related disorders” (Agios Pharmaceuticals, Inc., priority 2009, dated 2020)
Several values for one entry are separate records, joined by “and”; a condition that tells them apart may be missing. Equal entries are not always repeated. Where two headings read alike, the source gives them in different places. Blank lines part the entries; values can stand above or below the compound they belong to.

Tests used:
[1] = target: ICDH1 R132H (Homo sapiens (Human), UniProt O75874, R132H); assay: IDH1 R132H inhibition assay (NADPH/aKG, resazurin to resorufin fluorescence); assay type: biochemical; conditions: for IC50 Ratio (40/4): ratio of IC50 at 40 uM to 4 uM NADPH; for IC50: IDH1 R132H
Method: Assays were conducted in a volume of 76 ul assay buffer (150 mM NaCl, 10 mM MgCl2, 20 mM Tris pH 7.5, 0.03% bovine serum albumin) as follows in a standard 384-well plate: To 25 ul of substrate mix ([…], 2 mM aKG), 1 ul of test compound was added in DMSO. […] The reaction was incubated for 50 minutes at room temperature, then 25 ul of detection mix (30 uM resazurin, […]) was added and the mixture further incubated for 5 minutes at room temperature. The conversion of resazurin to resorufin was detected by fluorescent spectroscopy at Ex544 Em590 c/o 590.
(§1) The selectivity between wild type vs mutant could be >20-fold.

[2] = target: T1, IDH1 wt (Homo sapiens (Human), UniProt O75874); assay: IDH1 wt assay for inhibitor selectivity (1×Km of NADPH); assay type: biochemical; conditions: 1x Km NADPH; for IC50: read-out: IDH1wt IC50 @ 1x Km
Text: as §1

[3] = target: T2, IDH1 wild-type (Homo sapiens (Human), UniProt O75874); assay: Oxidative decarboxylation of isocitrate to α-KG by IDH1 wild-type (340 nm); assay type: biochemical; conditions: for effect on oxidative decarboxylation of isocitrate by wild-type ICDH1: added in a titration series
Method: (§2) In these reactions, the substrate was varied while the cofactor was held constant at 500 uM. All reactions were performed in 150 mM NaCl, 20 mM Tris-Cl, pH 7.5, 10% glycerol, and 0.03% (w/v) BSA). Reaction progress was followed by spectroscopy at 340 nM monitoring the change in oxidation state of the cofactor. Sufficient enzyme was added to give a linear change in absorbance for 10 minutes.
(§3) A well-known regulatory mechanism for control of metabolic enzymes is feedback inhibition, in which the product of the reaction acts as a negative regulator for the generating enzyme.

[4] = target: T3, IDH1 R132C (Homo sapiens (Human), UniProt O75874, R132C); assay: IDH1/2 activity assay, forward reaction (isocitrate, NADP+), stopped-flow, IDH1 R132C; assay type: biochemical
Method: (§4) Enzymatic binding constants were determined using curve fitting algorithms to standard kinetic models with the Sigmaplot software package (Systat Software, San Jose, Calif.). For determination of kcat, enzyme was incubated with 5×Km of substrate and cofactor; consumption of NADPH or NADP was determined by a change in the OD340 over time. In both cases an extinction coefficient of 6200 M^−1 cm^−1 was used for NADPH.

[5] = target: T4, IDH1 R132H (Homo sapiens (Human), UniProt O75874, R132H); assay: Oxidative decarboxylation of isocitrate to α-KG by IDH1 R132H (340 nm); assay type: biochemical
Method: as §2, §3

[6] = target: T2, IDH1 wild-type; assay: IDH1/2 activity assay, forward reaction (isocitrate, NADP+), stopped-flow, IDH1 wild-type; assay type: biochemical; conditions: Oxidative (→ NADPH), WT
Method: as §4

[7] = target: T3, IDH1 R132C; assay: IDH1/2 activity assay, reverse reaction (α-KG, NADPH), stopped-flow, IDH1 R132C; assay type: biochemical; conditions: Reductive (→ NADP+)
Method: as §4

[8] = test system: glioblastoma multiforme; conditions: cited from earlier work
[9] = test system: recurrent glioma; conditions: recurrent glioma patients; cited from earlier work
[10] = test system: glioblastoma multiforme; conditions: cited from earlier work; remark: listed apart in the source
[11] = target: T5, IDH1 R132S (Homo sapiens (Human), UniProt O75874, R132S); assay: Oxidative decarboxylation of isocitrate to α-KG by IDH1 R132S (340 nm); assay type: biochemical
Method: as §2, §3

[12] = target: T2, IDH1 wild-type; assay: Reduction of α-KG with NADPH by IDH1 wild-type; assay type: biochemical; conditions: 40 ug/ml enzyme
Method: as §2, with “reactions,” for “reactions, the”, “50” for “150”, “potassium phosphate buffer,” for “NaCl, 20 mM Tris-Cl,”, “6.5,” for “7.5,”, “glycerol,” for “glycerol, and”, “BSA, 5 mM MgCl2, and 40 mM sodium hydrocarbonate.” for “BSA).”

[13] = target: T4, IDH1 R132H; assay: Reduction of α-KG with NADPH by IDH1 R132H; assay type: biochemical
Method: as §2, with “reactions,” for “reactions, the”, “50” for “150”, “potassium phosphate buffer,” for “NaCl, 20 mM Tris-Cl,”, “6.5,” for “7.5,”, “glycerol,” for “glycerol, and”, “BSA, 5 mM MgCl2, and 40 mM sodium hydrocarbonate.” for “BSA).”

[14] = target: T5, IDH1 R132S; assay: Reduction of α-KG with NADPH by IDH1 R132S; assay type: biochemical
Method: as §2, with “reactions,” for “reactions, the”, “50” for “150”, “potassium phosphate buffer,” for “NaCl, 20 mM Tris-Cl,”, “6.5,” for “7.5,”, “glycerol,” for “glycerol, and”, “BSA, 5 mM MgCl2, and 40 mM sodium hydrocarbonate.” for “BSA).”

[15] = target: T2, IDH1 wild-type; assay: IDH1/2 activity assay, reverse reaction (α-KG, NADPH), stopped-flow, IDH1 wild-type; assay type: biochemical; conditions: Reductive (→ NADP+); WT; est.
Method: as §4

[16] = target: T5, IDH1 R132S; assay: Reduction of alpha-ketoglutarate with NADH by IDH1 R132S; assay type: biochemical; conditions: NADH 0.5 mM, alpha-Ketoglutarate 5 mM, R132S 30 ug/ml
Method: (§5) In order to evaluate the ability of the mutant enzymes to utilize NADH in the reduction of alpha-ketoglutarate, the following experiment was conducted.

[17] = target: T1, IDH1 wt; assay: Reduction of alpha-ketoglutarate with NADH by IDH1 wild type; assay type: biochemical; conditions: IDH1 wt 5 ug/ml, NADH 0.5 mM
Method: as §5

[18] = target: T4, IDH1 R132H; assay: Reduction of alpha-ketoglutarate with NADH by IDH1 R132H; assay type: biochemical; conditions: R132H 60 ug/ml, NADH 0.5 mM
Method: as §5

[19] = read-out: ICDH IC50 (uM) @ 4 uM (10x Km) NADPH, 4 uM (10x Km) NADPH
[20] = read-out: ICDH IC50 (uM) @ 40 uM NADPH, 40 uM (100x Km) NADPH
[21] = for isocitrate, cofactor 500 uM
[22] = without MGMT promoter methylation
[23] = with radiation, vs radiation alone
[24] = for α-KG, cofactor 500 uM, pH 6.5
[25] = α-KG varied, cofactor 500 uM, pH 6.5
[26] = α-KG product inhibition, competitive with isocitrate, read-out: Ki

T4 sequence (O75874 whole entry R132H): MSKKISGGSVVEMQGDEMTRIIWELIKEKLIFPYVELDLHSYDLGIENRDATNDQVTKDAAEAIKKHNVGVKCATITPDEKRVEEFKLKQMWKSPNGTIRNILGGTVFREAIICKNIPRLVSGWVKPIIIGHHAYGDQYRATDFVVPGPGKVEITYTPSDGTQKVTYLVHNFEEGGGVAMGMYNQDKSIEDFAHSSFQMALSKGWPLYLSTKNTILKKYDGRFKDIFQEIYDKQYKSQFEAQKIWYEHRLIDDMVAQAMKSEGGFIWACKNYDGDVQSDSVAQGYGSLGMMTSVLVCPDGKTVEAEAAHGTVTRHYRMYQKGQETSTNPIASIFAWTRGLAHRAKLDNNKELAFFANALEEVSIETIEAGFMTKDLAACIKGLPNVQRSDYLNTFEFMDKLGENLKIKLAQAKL
ICDH1 R132H, sequence (O75874 whole entry R132H): as above
T3 sequence (O75874 whole entry R132C): as the sequence (O75874 whole entry R132H) above, with H132C counted along it
T2 sequence (O75874 whole entry): as the sequence (O75874 whole entry R132H) above, with H132R counted along it
T1 sequence (O75874 whole entry): as the sequence (O75874 whole entry R132H) above, with H132R counted along it
T5 sequence (O75874 whole entry R132S): as the sequence (O75874 whole entry R132H) above, with H132S counted along it

Compound: O=C(O)CCC(O)C(=O)O (stereo not drawn) [reaction product 2-HG, 2-hydroxyglutarate]
effect on oxidative decarboxylation of isocitrate by wild-type ICDH1 [3]: inhibit

Compound: [Cl-].[Cl-].[Mg+2] [MgCl2]
Km ([4]; Oxidative (→ NADPH), read-out: KM,MgCl2): 450 µM

Compound: O=C(O)CC[C@@H](O)C(=O)O [(R)-2-hydroxyglutarate]
effect on oxidative decarboxylation of isocitrate by wild-type ICDH1 [3]: did not show any effect

Compound: O=C(O)CC(C(=O)O)C(O)C(=O)O (stereo not drawn) [isocitrate]
Km [5, 21]: 172 µM | Km ([4]; read-out: KM,isocitrate, Oxidative (→ NADPH)): 87000 µM | Km ([6]; read-out: KM,isocitrate): 57 µM | Km [3, 21]: 56.8 µM

Compound: R132C
kcat ([4]; Oxidative (→ NADPH)): 710 s⁻¹ | kcat [7]: 550 s⁻¹

Compound: Cn1nnc2c(C(N)=O)ncn2c1=O [temozolomide, Temozolomide]
2-year survival rate ([8]; with MGMT promoter methylation): 46% | median survival ([8]; with MGMT promoter methylation): 21.7 months | 2-year survival rate [8, 22]: 13.8% | median survival [8, 22]: 12.7 months | 6-month survival [9]: 21% | tolerability ([10]; in vivo): well tolerated | likelihood of being alive in 2 years [10, 23]: 26% | median progression-free survival [10, 23]: 6.9 mo | overall survival [10, 23]: 14.6 mo

Compound: O=C(O)CCC(=O)C(=O)O [α-KG, α-Ketoglutarate]
NADPH consumption in reduction of α-KG [12]: unable to consume NADPH | Km [13, 24]: 965 µM | Hill Constant ([13]; α-KG varied): 1.8 | Vmax [13, 25]: 1.3 µmol/min/mg | Km [14, 24]: 181 µM | Ki ([14]; uncompetitive substrate inhibition by α-KG): 24600 µM | Hill Constant ([14]; α-KG varied): 0.479 | Vmax [14, 25]: 2.7 µmol/min/mg | Ki [5, 26]: 28.6 µM | increase in sensitivity to feedback inhibition as compared to the wild-type enzyme ([5]; α-KG, R132H vs wild-type): 20 fold | Ki ([4]; Oxidative (→ NADPH), read-out: Ki,αKG): 61 µM | Ki [11, 26]: 45.3 µM | increase in sensitivity to feedback inhibition as compared to the wild-type enzyme ([11]; α-KG, R132S vs wild-type): 13 fold | Km ([7]; read-out: KM,αKG): 295 µM | Ki ([6]; read-out: Ki,αKG): 610 µM | Ki [3, 26]: 612 µM

Compound: NC(=O)C1=CN([C@@H]2O[C@H](COP(=O)(O)OP(=O)(O)OC[C@H]3O[C@@H](n4cnc5c(N)ncnc54)[C@H](OP(=O)(O)O)[C@@H]3O)[C@@H](O)[C@H]2O)C=CC1 [NADPH]
Km ([7]; read-out: KM,NADPH): 0.3 µM

Compound: WT
kcat [15]: ~7 (est.) s^−1 | kcat [6]: 130000 s⁻¹

Second part, led by results:

IC50 Ratio (40/4) [1]: 1.15 | IC50 [1, 19]: 12.8 µM | IC50 [1, 20]: 14.7 µM | IC50 [2]: 19.2 µM
Compound: O=C1NC(=S)S/C1=C\c1cccc(OC(=O)c2cccc(F)c2)c1

IC50 Ratio (40/4) [1]: 1.28 | IC50 [1, 19]: 15 µM | IC50 [1, 20]: 19.2 µM | IC50 [2]: 46.8 µM
Compound: Cc1cc(C(=O)O)ccc1-c1ccc(/C=C2/NC(=O)N(Cc3ccc(Br)cc3)C2=O)o1

IC50 Ratio (40/4) [1]: 3.38 | IC50 [1, 19]: 12.3 µM | IC50 [1, 20]: 41.4 µM | IDH1wt IC50 @ 1x Km (uM) [2]: NO inhibition
Compound: Cc1ccc(C2=NN(c3ccccc3)C(c3cn(CCC(=O)O)nc3-c3ccccc3)C2)cc1 (stereo not drawn)

Ki ([5]; IDH1R132H 60 ug/ml, NADP 0.5 mM, DL-isocitrate 5-650 uM, read-out: Oxalomalate Ki): 951 µM | susceptibility to inhibition by oxalomalate ([5]; R132H vs wt): essentially unaffected | Ki ([11]; IDH1R132S 30 ug/ml, NADP 0.5 mM, DL-isocitrate 5-650 uM, read-out: Oxalomalate Ki): 510 µM | increase in susceptibility to inhibition by oxalomalate ([11]; R132S vs wt): two-fold | Ki ([3]; IDH1 wt 1.5 ug/ml, NADP 0.5 mM, DL-isocitrate 5-650 uM, read-out: Oxalomalate Ki): 955 µM
Compound: O=C(O)C(=O)C(C(=O)O)C(O)C(=O)O (stereo not drawn) [Oxalomalate, oxalomalate]

Consumption of NADH, Mean [16]: 0.709 Umol/min/mg | Rate, consumption of NADH, Mean [16]: 0.001103 ΔA/sec | Rate, consumption of NADH, individual runs [16]: 0.001117 ΔA/sec and 0.001088 ΔA/sec | consumption of NADH in the presence of alpha-ketoglutarate [17]: no measurable consumption | consumption of NADH in the presence of alpha-ketoglutarate [18]: no measurable consumption
Compound: NC(=O)C1=CN([C@@H]2O[C@H](COP(=O)(O)OP(=O)(O)OC[C@H]3O[C@@H](n4cnc5c(N)ncnc54)[C@H](O)[C@@H]3O)[C@@H](O)[C@H]2O)C=CC1 [NADH]
Consumption of NADH, individual runs [16]: 0.7183 Umol/min/mg and 0.6997 Umol/min/mg

Km ([4]; Oxidative (→ NADPH), read-out: KM,NADP+): 21 µM
Compound: NC(=O)c1ccc[n+]([C@@H]2O[C@H](COP(=O)([O-])OP(=O)(O)OC[C@H]3O[C@@H](n4cnc5c(N)ncnc54)[C@H](OP(=O)(O)O)[C@@H]3O)[C@@H](O)[C@H]2O)c1 [NADP+]

IC50 Ratio (40/4) [1]: 1.39 | IC50 [1, 19]: 23.8 µM | IC50 [1, 20]: 33.2 µM | IC50 [2]: 69.3 µM
Compound: O=C1NC(=S)S/C1=C/c1cccc(OCc2ccc([N+](=O)[O-])cc2)c1

IC50 Ratio (40/4) [1]: 17.42 | IC50 [1, 19]: 5.74 µM | IC50 [1, 20]: > 100 µM | IC50 [2]: 16.2 µM
Compound: Cc1c(/C=C2\Sc3ccccc3C2=O)c(O)n2c(nc3ccccc32)c1C#N
